Key:
[1] = biological target: T1, 5-hydroxytryptamine receptor 1A (Homo sapiens, UniProt P08908); format: functional, cell-based
T1 sequence (P08908 whole entry): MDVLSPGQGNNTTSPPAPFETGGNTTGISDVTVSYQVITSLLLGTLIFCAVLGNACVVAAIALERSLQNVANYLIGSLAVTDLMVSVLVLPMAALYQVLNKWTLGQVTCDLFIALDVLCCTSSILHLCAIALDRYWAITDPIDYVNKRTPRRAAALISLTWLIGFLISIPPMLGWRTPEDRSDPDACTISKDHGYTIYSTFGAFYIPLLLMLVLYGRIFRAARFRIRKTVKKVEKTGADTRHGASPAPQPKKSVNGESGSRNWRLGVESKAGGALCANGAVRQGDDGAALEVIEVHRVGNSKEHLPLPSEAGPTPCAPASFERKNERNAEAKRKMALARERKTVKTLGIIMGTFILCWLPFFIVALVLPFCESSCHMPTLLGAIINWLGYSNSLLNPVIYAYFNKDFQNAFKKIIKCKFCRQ

[2] = biological target: T2, Alpha-1A adrenergic receptor (Homo sapiens, UniProt P35348)
T2 sequence (P35348 whole entry): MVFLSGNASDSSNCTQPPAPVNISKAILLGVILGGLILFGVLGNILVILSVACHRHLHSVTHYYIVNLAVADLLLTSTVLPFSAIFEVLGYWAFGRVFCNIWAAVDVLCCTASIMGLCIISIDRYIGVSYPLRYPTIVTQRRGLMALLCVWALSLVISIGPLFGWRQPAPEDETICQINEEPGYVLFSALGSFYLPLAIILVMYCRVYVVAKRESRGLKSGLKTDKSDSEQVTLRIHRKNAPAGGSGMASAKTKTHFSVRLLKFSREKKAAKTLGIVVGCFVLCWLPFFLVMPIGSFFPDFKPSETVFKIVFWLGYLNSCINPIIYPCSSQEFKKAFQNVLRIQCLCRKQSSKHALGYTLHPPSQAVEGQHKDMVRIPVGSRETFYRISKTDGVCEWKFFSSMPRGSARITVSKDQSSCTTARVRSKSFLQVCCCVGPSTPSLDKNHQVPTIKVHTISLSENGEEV

Thromboxane A2 receptor = biological target: T3, Thromboxane A2 receptor (Homo sapiens, UniProt P21731)
T3 sequence (P21731 whole entry): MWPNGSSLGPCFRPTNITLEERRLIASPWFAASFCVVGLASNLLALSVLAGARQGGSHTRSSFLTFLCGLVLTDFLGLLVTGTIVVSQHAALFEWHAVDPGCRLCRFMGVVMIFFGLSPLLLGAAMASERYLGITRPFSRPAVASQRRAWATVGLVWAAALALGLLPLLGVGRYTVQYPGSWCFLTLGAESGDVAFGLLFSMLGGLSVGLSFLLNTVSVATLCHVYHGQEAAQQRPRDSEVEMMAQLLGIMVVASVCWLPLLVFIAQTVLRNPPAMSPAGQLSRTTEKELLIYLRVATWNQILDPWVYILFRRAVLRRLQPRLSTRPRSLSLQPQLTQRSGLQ

B2 bradykinin receptor = biological target: T4, B2 bradykinin receptor (Homo sapiens, UniProt P30411)
T4 sequence (P30411 whole entry): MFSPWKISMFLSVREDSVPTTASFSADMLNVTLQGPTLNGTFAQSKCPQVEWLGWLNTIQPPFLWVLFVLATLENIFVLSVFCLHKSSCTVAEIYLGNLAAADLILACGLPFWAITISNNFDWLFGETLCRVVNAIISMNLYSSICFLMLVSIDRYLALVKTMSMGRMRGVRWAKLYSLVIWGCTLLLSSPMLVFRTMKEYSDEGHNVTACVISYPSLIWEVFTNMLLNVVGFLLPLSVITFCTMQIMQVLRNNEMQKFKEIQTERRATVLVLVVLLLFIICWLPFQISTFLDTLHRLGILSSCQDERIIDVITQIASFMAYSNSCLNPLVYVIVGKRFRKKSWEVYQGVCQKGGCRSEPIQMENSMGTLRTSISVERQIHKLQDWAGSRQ

Adenosine receptor A2a = Adenosine receptor A2a (Homo sapiens, UniProt P29274)
Sequence of Adenosine receptor A2a (P29274 whole entry): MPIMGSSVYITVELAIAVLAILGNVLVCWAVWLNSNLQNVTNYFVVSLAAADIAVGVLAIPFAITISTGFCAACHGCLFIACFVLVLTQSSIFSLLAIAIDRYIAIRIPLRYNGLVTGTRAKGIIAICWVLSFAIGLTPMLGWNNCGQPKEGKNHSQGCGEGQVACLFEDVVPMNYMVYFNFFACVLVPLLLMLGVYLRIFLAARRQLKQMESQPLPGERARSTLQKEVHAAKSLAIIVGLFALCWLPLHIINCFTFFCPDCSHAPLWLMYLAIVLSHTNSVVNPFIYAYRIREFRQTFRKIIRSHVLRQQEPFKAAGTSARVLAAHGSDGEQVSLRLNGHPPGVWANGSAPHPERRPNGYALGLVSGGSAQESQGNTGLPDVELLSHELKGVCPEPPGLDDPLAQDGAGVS

[3] = biological target: Gamma-aminobutyric acid receptor subunit alpha-1 (Rattus norvegicus, UniProt P62813); format: functional
Sequence of Gamma-aminobutyric acid receptor subunit alpha-1 (P62813 whole entry): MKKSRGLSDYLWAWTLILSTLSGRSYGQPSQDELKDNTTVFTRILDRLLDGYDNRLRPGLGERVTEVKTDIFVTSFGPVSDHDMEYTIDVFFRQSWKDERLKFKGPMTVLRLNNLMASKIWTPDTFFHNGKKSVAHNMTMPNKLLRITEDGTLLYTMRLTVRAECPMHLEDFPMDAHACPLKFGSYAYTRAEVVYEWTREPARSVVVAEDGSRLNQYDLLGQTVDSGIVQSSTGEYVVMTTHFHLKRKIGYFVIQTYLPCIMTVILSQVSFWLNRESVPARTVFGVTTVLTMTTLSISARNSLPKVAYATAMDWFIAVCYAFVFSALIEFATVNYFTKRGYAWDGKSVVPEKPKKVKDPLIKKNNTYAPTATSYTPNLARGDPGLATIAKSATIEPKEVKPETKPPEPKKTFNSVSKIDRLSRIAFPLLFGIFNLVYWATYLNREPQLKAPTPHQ

[4] = biological target: T5, Gastrin/cholecystokinin type B receptor (Homo sapiens, UniProt P32239)
T5 sequence (P32239 whole entry): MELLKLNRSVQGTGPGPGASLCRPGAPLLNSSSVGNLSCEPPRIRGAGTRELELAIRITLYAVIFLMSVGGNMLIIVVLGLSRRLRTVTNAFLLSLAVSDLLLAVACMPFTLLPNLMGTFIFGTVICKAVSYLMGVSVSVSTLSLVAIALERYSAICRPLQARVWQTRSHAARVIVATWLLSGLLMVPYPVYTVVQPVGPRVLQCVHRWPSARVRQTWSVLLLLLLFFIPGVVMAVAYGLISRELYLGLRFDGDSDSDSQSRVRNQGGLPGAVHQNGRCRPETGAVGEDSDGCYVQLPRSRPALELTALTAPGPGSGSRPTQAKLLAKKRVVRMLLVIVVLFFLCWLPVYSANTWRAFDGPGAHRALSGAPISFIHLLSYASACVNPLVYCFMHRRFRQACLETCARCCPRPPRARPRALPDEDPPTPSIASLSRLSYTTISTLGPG

[5] = biological target: 5-hydroxytryptamine receptor 2B (Homo sapiens, UniProt P41595); format: functional, cell-based
Sequence of 5-hydroxytryptamine receptor 2B (P41595 whole entry): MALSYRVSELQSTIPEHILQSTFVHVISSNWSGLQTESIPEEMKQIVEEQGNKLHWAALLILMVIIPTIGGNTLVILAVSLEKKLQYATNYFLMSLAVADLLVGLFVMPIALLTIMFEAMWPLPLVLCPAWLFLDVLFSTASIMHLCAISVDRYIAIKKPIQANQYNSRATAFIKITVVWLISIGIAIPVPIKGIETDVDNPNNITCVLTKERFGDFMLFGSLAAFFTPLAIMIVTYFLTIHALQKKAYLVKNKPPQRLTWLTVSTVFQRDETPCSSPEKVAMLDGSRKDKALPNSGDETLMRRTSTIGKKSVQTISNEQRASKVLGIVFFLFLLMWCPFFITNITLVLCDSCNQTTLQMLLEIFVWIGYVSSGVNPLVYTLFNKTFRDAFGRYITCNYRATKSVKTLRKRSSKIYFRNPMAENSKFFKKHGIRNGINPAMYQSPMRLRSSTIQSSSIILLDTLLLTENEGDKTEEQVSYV

Cannabinoid receptor 1 = Cannabinoid receptor 1 (Homo sapiens, UniProt P21554); format: functional, cell-based
Sequence of Cannabinoid receptor 1 (P21554 whole entry): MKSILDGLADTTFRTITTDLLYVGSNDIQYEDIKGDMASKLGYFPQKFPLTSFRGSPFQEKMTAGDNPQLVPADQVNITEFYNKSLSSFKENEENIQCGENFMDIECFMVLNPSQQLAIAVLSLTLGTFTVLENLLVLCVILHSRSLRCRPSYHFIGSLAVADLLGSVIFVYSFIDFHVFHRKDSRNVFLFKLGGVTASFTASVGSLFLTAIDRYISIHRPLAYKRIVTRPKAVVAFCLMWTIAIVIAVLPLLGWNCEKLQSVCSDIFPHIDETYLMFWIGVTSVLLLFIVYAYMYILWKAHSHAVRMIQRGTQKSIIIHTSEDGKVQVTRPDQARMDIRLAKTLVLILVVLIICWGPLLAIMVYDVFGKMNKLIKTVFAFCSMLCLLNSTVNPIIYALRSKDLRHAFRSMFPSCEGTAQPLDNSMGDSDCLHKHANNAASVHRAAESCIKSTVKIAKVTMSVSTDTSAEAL
Also: assay procedure not described here.

SMILES	AC50 [1]	AC50 [2]	AC50 (Thromboxane A2 receptor)	AC50 (B2 bradykinin receptor)	AC50 (Adenosine receptor A2a)	AC50 [3]	AC50 [4]	AC50 [5]	AC50 (Cannabinoid receptor 1)
C[N+]1(C)CCC(=C(c2ccccc2)c2ccccc2)CC1	> 10 µM	> 10 µM	> 30 µM	> 30 µM	> 30 µM	> 10 µM	> 30 µM	> 10 µM	–
Cc1ccccc1-n1c(CF)nc2ccc(N)cc2c1=O [AFLOQUALONE]	> 10 µM	> 30 µM	> 30 µM	> 30 µM	> 30 µM	> 10 µM	> 30 µM	> 10 µM	–
CC(C)(Oc1ccc(CCNC(=O)c2ccc(Cl)cc2)cc1)C(=O)O [BEZAFIBRATE]	> 30 µM	> 10 µM	> 10 µM	> 10 µM	> 10 µM	> 10 µM	–	> 10 µM	> 30 µM
CC(O)(CS(=O)(=O)c1ccc(F)cc1)C(=O)Nc1ccc(C#N)c(C(F)(F)F)c1 (stereo not drawn) [BICALUTAMIDE]	> 10 µM	> 10 µM	> 30 µM	> 30 µM	> 30 µM	> 10 µM	> 30 µM	> 10 µM	> 30 µM
O=C(O)COCCN1CCN(C(c2ccccc2)c2ccc(Cl)cc2)CC1 (stereo not drawn) [CETIRIZINE]	> 10 µM	> 10 µM	> 30 µM	> 30 µM	> 30 µM	–	> 30 µM	–	> 30 µM
C[C@@H]1C[C@H]2[C@@H]3C[C@H](F)C4=CC(=O)C=C[C@]4(C)[C@@]3(F)[C@@H](O)C[C@]2(C)[C@@]1(OC(=O)c1ccco1)C(=O)SCF [FLUTICASONE FUROATE]	> 10 µM	> 10 µM	> 10 µM	> 10 µM	> 10 µM	> 10 µM	> 10 µM	> 10 µM	> 30 µM
CNCCc1ccc(OC(=O)C(C)C)c(OC(=O)C(C)C)c1 [IBOPAMINE]	> 30 µM	> 30 µM	> 30 µM	> 30 µM	> 30 µM	> 30 µM	> 30 µM	> 30 µM	> 30 µM
CN(C)CCCN1c2ccccc2CCc2ccccc21 [IMIPRAMINE]	> 10 µM	0.0804 µM	> 30 µM	> 30 µM	> 30 µM	> 10 µM	> 30 µM	> 10 µM	> 30 µM
CCC[C@@H]1C[C@@H](C(=O)N[C@@H]([C@H]2O[C@H](SC)[C@H](O)[C@@H](O)[C@H]2O)[C@@H](C)O)N(C)C1 [LINCOMYCIN]	> 30 µM	> 10 µM	> 10 µM	> 10 µM	> 10 µM	> 10 µM	–	> 30 µM	> 30 µM
C=C1c2cccc(O)c2C(=O)C2=C(O)[C@]3(O)C(=O)C(C(N)=O)=C(O)[C@@H](N(C)C)[C@@H]3[C@@H](O)[C@H]12 [METHACYCLINE]	> 10 µM	> 10 µM	> 30 µM	> 30 µM	> 30 µM	> 10 µM	> 30 µM	> 10 µM	–
CN(Cc1cnc2nc(N)nc(N)c2n1)c1ccc(C(=O)N[C@@H](CCC(=O)O)C(=O)O)cc1 [METHOTREXATE]	> 10 µM	> 10 µM	> 30 µM	> 30 µM	> 30 µM	> 10 µM	> 30 µM	> 10 µM	> 30 µM
O=C1c2ccccc2C(=O)C1c1ccccc1 [PHENINDIONE]	> 30 µM	> 10 µM	> 10 µM	> 10 µM	> 10 µM	> 10 µM	–	> 10 µM	> 30 µM
CN[C@@H](C)[C@@H](O)c1ccccc1 [PSEUDOEPHEDRINE]	> 10 µM	> 10 µM	> 30 µM	> 30 µM	> 30 µM	> 10 µM	> 30 µM	> 10 µM	–
CCCN1CC(NS(=O)(=O)N(CC)CC)CC2Cc3c(O)cccc3CC21 (stereo not drawn) [QUINAGOLIDE]	1.1 µM	29 µM	> 30 µM	> 30 µM	> 30 µM	> 30 µM	> 30 µM	3.67 µM	> 30 µM
C[C@]12CCC(=O)C[C@@H]1CC[C@@H]1[C@@H]2CC[C@]2(C)[C@@H](O)CC[C@@H]12 [STANOLONE]	> 30 µM	> 30 µM	> 30 µM	> 30 µM	> 30 µM	> 30 µM	> 30 µM	> 30 µM	–
C[C@]12C=CC(=O)C=C1CC[C@@H]1[C@@H]2CC[C@]2(C)OC(=O)CC[C@@H]12 [TESTOLACTONE]	> 30 µM	> 10 µM	> 10 µM	> 10 µM	> 10 µM	> 10 µM	–	> 30 µM	> 30 µM

From ChEMBL document CHEMBL5291721, “A preclinical secondary pharmacology resource illuminates target-adverse drug reaction associations of marketed drugs” (Nat Commun, 2023)
